# Measurements: a melting point compilation (Tetko et al.; mined from patent text by program, amines drawn as free bases though some values may be those of a salt)
row,SMILES,melting point [°C]
1,CCC1Cc2ccc([N+](=O)[O-])cc2C=N1 (stereo unspecified),61 to 62
2,COc1ccc(C(=O)c2ccccc2F)c(O)c1Br,127 to 129
3,NC(=O)N1CC(c2ccccc2)C(c2ccc(Cl)cc2)=N1 (stereo unspecified),173 to 175
4,CCOC(=O)c1cn(C2CCCO2)c(=O)[nH]c1=O (stereo unspecified),125
5,CCC1(CCCCCBr)C(=O)Nc2ccc(C)cc21 (stereo unspecified),72 to 73
6,COc1ccc(Cl)c(Oc2c(Cl)ncnc2NS(=O)(=O)c2ccc(C(C)C)cn2)c1,174 to 175
7,NC(=O)c1cnn2cccc2c1NC1CCCCCC1,279
8,CN1C(O)=C(C(=O)Nc2ccc(Cl)cc2)c2sccc2S1(=O)=O,172
9,CCc1cccc(CC)c1NCC(=O)NC(=S)NNC,166
10,Cc1nc(NC(CO)C(C)C)c2c(n1)c(C)nn2C (stereo unspecified),166 to 168
11,CC1CC(N)=NN1c1ccc(Cl)cc1Cl (stereo unspecified),109 to 111
12,COc1ccc(S(=O)O)c(OC)c1,89 to 91
13,O=C(c1cccc(Cc2ccc(=O)[nH]n2)c1)c1c(Cl)cc(Cl)cc1Cl,149 to 151
14,CCCN1C(=O)C2CC2(c2ccc(N)cc2)C1=O (stereo unspecified),97
15,Clc1ccc(-c2nc(Cl)cc(NCCN3CCOCC3)n2)cc1,127 to 129

# Second part, the compound after the results:
row,melting point [°C],SMILES
1,214 to 217,CCNCC1CCN(c2c(F)cc3c(=O)c(C(=O)O)cn(C4CCCC4)c3c2F)C1 (stereo unspecified)
2,48 to 52,O=C(Nc1ccccn1)C(CC1CCCC1)c1ccc(Cl)c([N+](=O)[O-])c1 (stereo unspecified)
3,85 to 87,COc1ccc(OCCCCCN2CCC(CNC(=O)c3cc(Cl)c(N)cc3OC)CC2)cc1OC
4,63 to 64,CCc1noc(-c2ncn(-c3cccc(OCc4ccccc4)c3)c2COC)n1
5,118 to 121,COc1cc2c(cc1OC)NC(=O)N(CCCN(C)CCCS(=O)(=O)c1ccccc1)CC2
6,233,O=C(C=Cc1ccc(C(F)(F)F)cc1)N1CCc2c([nH]c3ccccc23)C1c1ccc2c(c1)OCO2 (stereo unspecified)
7,155 to 157,CCc1c(N)c(C(N)=O)nn1C1CN(CC)C1
8,197 to 199,CCC(CC)n1cc(C#N)nc(N2CCc3cc(Cl)cc(Cl)c32)c1=O
9,96 to 99,CCN(CC)S(=O)(=O)c1cc(Cl)c(Cl)c(Cl)c1S
10,41 to 42,C=CC(=O)OC1(C)CCCC2C3C=CC(C3)C21 (stereo unspecified)
11,98 to 99,COc1ccc(OC(C(=O)N(C)C)C2(O)CCCCC2)cc1 (stereo unspecified)
12,122,CC(C)(C)OC(=O)N1CCC(C(=O)c2nc3ccccc3n2Cc2ccccc2)CC1
13,86 to 87,COc1ccnc(CSc2nc3cc(-n4ccnc4)c(F)cc3[nH]2)c1
14,108 to 110,CC(C)(C)c1cc(C(=O)c2cccs2)cc(CN(CCO)CCO)c1O
15,84.5 to 86,CCCCCCCCCCCCCCCCC(O)CNCCO (stereo unspecified)
16,215,COc1ccc2cc(-c3nc(-c4ccccc4)no3)c(=O)oc2c1
17,210,O=C(NCCN1CCOCC1)Nc1nc2ccc(OCc3c(F)cccc3Cl)cc2s1
18,83,COC(=O)CCCc1cc2nc(Cl)ccc2n1S(=O)(=O)c1ccccc1F
19,128,COc1ccc2c(c1)c(C)c(CC(C)C(=O)O)n2Cc1ccc(Cl)cc1 (stereo unspecified)
20,224,Cc1c(C)c(C2CC(=O)C=C(O)C2)c(Cl)c2c1CCO2 (stereo unspecified)
21,252 to 254,O=C1c2ccccc2C2(O)Oc3c(ccc4c3CCCC4)C12O (stereo unspecified)
